{"source": "paper PMC8631057", "about": "(Antiviral research, 2021)", "key": {"in vitro": {"test": "in vitro", "details": "human"}, "rCedV-Luc [1]": {"system": "rCedV-Luc", "test": "microbe, parasite or virus in culture", "type": "cell-based", "details": "Cedar virus, Vero C1008, 48 h, read-out: IC50 (95% CI)"}, "rCedV-Luc [2]": {"system": "rCedV-Luc", "test": "microbe, parasite or virus in culture", "type": "cell-based", "details": "read-out: IC50 (95% CI)"}, "Vero 76 cell line": {"system": "Vero 76 cell line", "details": "African green monkey"}, "NiV-B": {"system": "NiV-B", "test": "microbe, parasite or virus in culture", "type": "cell-based, Nipah virus", "details": "for pIC50: read-out: IC50 (95% CI)"}, "HeV": {"system": "HeV", "test": "microbe, parasite or virus in culture", "type": "cell-based, Hendra virus", "details": "for pIC50: read-out: IC50 (95% CI)"}, "CedV F and G": {"system": "CedV F and G", "type": "cell-based"}}, "note": "pIC50: −log10 of the molar value. Where two headings read alike, the source gives them in different places.", "data": [{"compound": "COc1ccc(Nc2nc(-c3nnn(-c4ccc(Br)cc4F)c3C)ns2)cc1", "note": "[Z, 3-(1-(4-bromo-2-fluorophenyl)-5-methyl-1H-1,2,3-triazol-4-yl)-N-(4-methoxyphenyl)-1,2,4-thiadiazol-5-amine]", "values": [{"measurement": "CC50", "setting": "in vitro", "value": "> 100", "unit": "µM"}, {"measurement": "pIC50", "setting": "rCedV-Luc [1]", "value": 6.39}, {"measurement": "pIC50", "setting": "rCedV-Luc [2]; Cedar virus, HEK-293T, 48 h", "value": 6.89}]}, {"compound": "cyclobutyl(1-(4-ethoxyphenyl)-1,3,4,9-tetrahydro-2H-pyrido[3,4-b]indol-2-yl)methanone [Compound F1]", "values": [{"measurement": "CC50", "setting": "Vero 76 cell line", "value": "> 100", "unit": "µM"}, {"measurement": "pIC50", "setting": "NiV-B", "value": 5.38}, {"measurement": "Cytotoxicity (in words)", "setting": "HEK 293T cells", "value": "mild toxicity"}, {"measurement": "CC50", "setting": "HEK 293T cells; human", "value": 85.8, "unit": "µM"}, {"measurement": "CC50", "setting": "Vero E6 cells; African green monkey", "value": "> 100", "unit": "µM"}, {"measurement": "pIC50", "setting": "HeV", "value": 4.71}, {"measurement": "Inhibition of cell-cell membrane fusion activity", "setting": "CedV F and G", "value": "did not inhibit cell-cell membrane fusion activity"}]}, {"compound": "(1-(6-(cyclopropylamino)pyrimidin-4-yl)piperidin-4-yl)-N-(2-(thiophen-2-yl)ethyl)propenamide [Compound A3]", "values": [{"measurement": "CC50", "setting": "HEK 293T cells", "value": "> 100", "unit": "µM"}, {"measurement": "CC50", "setting": "Vero E6 cells", "value": "> 100", "unit": "µM"}, {"measurement": "pIC50", "setting": "rCedV-Luc [2]", "value": "~6.52"}]}, {"compound": "CCOc1ccc(C2c3[nH]c4ccccc4c3CCN2C(=O)C2CCC2)cc1", "note": "(stereo not drawn) [Compound C1, cyclobutyl(1-(4-ethoxyphenyl)-1,3,4,9-tetrahydro-2H-pyrido[3,4-b]indol-2-yl)methanone]", "values": [{"measurement": "Selectivity index (SI)", "setting": "NiV-B", "value": "> 55"}, {"measurement": "pIC50", "setting": "NiV-B; Henipavirus nipahense, Vero 76, 48 h", "value": 5.74}, {"measurement": "CC50", "setting": "in vitro", "value": "> 100", "unit": "µM"}, {"measurement": "pIC50", "setting": "rCedV-Luc [1]", "value": 5.11}, {"measurement": "Selectivity index (SI)", "setting": "HeV", "value": "> 10"}, {"measurement": "pIC50", "setting": "HeV; Henipavirus hendraense, Vero 76, 48 h", "value": 5.01}, {"measurement": "Inhibition of cell-cell membrane fusion activity", "setting": "CedV F and G", "value": "did not inhibit cell-cell membrane fusion activity"}, {"measurement": "pIC50", "setting": "rCedV-Luc [2]; Cedar virus, HEK-293T, 48 h", "value": 5.51}]}]}
